Results on two compounds are retold here after patent US20210030673A1, “Method and a Compound for Preventing Mammalian Cancer Cell Proliferation and for Treating Cancer” (Oy Granula Ab Ltd., priority 2019, published 2021).

Read-outs that look alike come from different tables or passages of the source.

Series [1] concerns normal human dermal fibroblast (HDF) cells.
Description: Results are mean values from three independent experiments (±SEM).
Series [2] in a line: Cytotoxicity assay of BA and BOA (Cell Counting Kit-8), WM-266-4. The note with it: human, WM-266-4 metastatic melanoma cells.
Protocol: (§2) Cells were seeded with 5000 cells/well on a 96-well plate (Falcon) in RPMI-1640 medium (PC-3 cells) or DMEM medium (WM-266-4 cells) supplemented with 10% fetal bovine serum, 2 mM L-glutamine, 100 U/ml penicillin, and 100 μg/ml streptomycin. The cells were incubating overnight in +37° C., 5% CO2 for the cells to adhere to the plate. The following day, cells were treated with BA or BOA (prepared from stock solutions using DMSO as solvent) in concentrations of 0-200 μM in complete medium in replicate samples and incubated for 48 h. The old medium was thereafter discarded and substituted with 100 μL 10% Cell Counting Kit-8 reagent (Dojindo Molecular Technologies) diluted in serum-free RPMI-1640 medium. The samples were incubated for an additional 1 h prior to analyzing cell viability by measuring the absorbance at 450 nm using a microplate reader (Hidex Sense) according to manufacturer's protocol. Non-treated cells were used as a negative control. 1% DMSO was used to control for effect of solvent. All samples contained 1% or less DMSO. The experiment was repeated at least three independent times for accurate cytotoxicity analysis. The IC50-value was calculated using GraphPad Prism 6 software.
Series [3] relates to metastatic melanoma (WM-266-4) cells. Described as above. Conditions: read-out: IC50-value, cell viability, WM-266-4.
Protocol: as §2
Series [4] deals with metastatic prostate cancer (PC-3) cells. Nature of the series: Live-cell imaging of PC-3 proliferation, BA or BOA. In kind it is cell-based, human. Conditions: 48-hour treatment. The method, then:
(§1) One day prior to the treatment, the cells were counted and plated on 24-well plates (Falcon) and incubated overnight at +37° C. (5% CO2). The following day, the cells were treated betulinic acid (BA) or betulonic acid (BOA) in concentrations of 0, 10, 50, 70, 100, and 150 μM. 1% DMSO was used to control for the effects of the solvent. All samples were made in triplicates. The cells were imaged for 48 h with 2 h intervals (9 images per well) using IncuCyte S3 Live-Cell Analysis System (Essen BioScience).

The test system is the same in series [5]. Briefly: Cytotoxicity assay of BA and BOA (Cell Counting Kit-8), PC-3. Conditions: read-out: IC50-value, cell viability, PC-3. For orientation: Tetrazolium assays rely on reduction of a dye to a coloured formazan, in cell work by metabolically active cells.
Protocol: as §2
Assay in series [6]: as above
The note with it: human, PC-3 metastatic prostate cancer cells.
Protocol: as §2

For series [7], the system named is metastatic melanoma (WM-266-4) cells. Conditions: 100 µM.
Protocol: as §2
Series [8] shares this test system. Nature of the series: Live-cell imaging of WM-266-4 proliferation, BOA. Conditions: 48-hour treatment. In kind it is cell-based, human. The method, then:
as §1

The subject of series [9] is metastatic prostate cancer (PC-3) cells. Conditions: 100 µM.
Protocol: as §2
The mark [10] stands for this setting: 48 h treatment, complete medium.

Consider `C=C(C)[C@@H]1CC[C@]2(C(=O)O)CC[C@]3(C)[C@H](CC[C@@H]4[C@@]5(C)CC[C@H](O)C(C)(C)[C@@H]5CC[C@]43C)[C@@H]12` [BA, betulinic acid], for which the “effect on HDF cell proliferation” value in [1] is given as “neither BA or BOA had any significant effects on HDF cells”. In addition, the viability at 48 h, 100 µM in [2] and in [6] was ~0% each time. The half-inhibitory concentration (IC50) in series [3] (Homo sapiens, WM 266-4, 48 h) was found to be 64.7 µM; in series [5] (Homo sapiens, PC-3, 48 h) it was 68 µM. Moreover, the “concentration giving maximum decrease of PC-3 proliferation” value in series [4] came to 50 µM.
For `C=C(C)[C@@H]1CC[C@]2(C(=O)O)CC[C@]3(C)[C@H](CC[C@@H]4[C@@]5(C)CCC(=O)C(C)(C)[C@@H]5CC[C@]43C)[C@@H]12` [BOA, betulonic acid], the “effect on HDF cell proliferation” value in [1] is “neither BA or BOA had any significant effects on HDF cells”. The “viability of WM-266-4 cells” value in [7] was “below 20%”. Further, the “concentration giving maximal decrease in WM-266-4 proliferation” value in series [8] amounted to 50 µM. Besides, the “viability of PC-3 cells” value in series [9] is “below 20%”. Besides, the IC50 in series [3] (setting [10]) amounted to 39.8 µM; in series [5] (setting [10]), 78.5 µM. For the same compound, the “concentration giving maximum decrease of PC-3 proliferation” value in series [4] is 50 µM.

What is called viability is a read-out of living cells in per cent, often relative to untreated cells. The IC50 is the midpoint of a concentration-inhibition curve.
